{"source": "paper PMC10012172", "about": "“Chimeric Peptidomimetic Antibiotic Efficiently Neutralizes Lipopolysaccharides (LPS) and Bacteria-Induced Activation of RAW Macrophages” (ACS Infectious Diseases, 2023)", "key": {"[1]": {"tested_on": "E. coli O111:B4 LPS stimulated RAW264.7 macrophages", "assay": "Nitric oxide inhibition assay (Griess), E. coli O111:B4 LPS", "format": "cell-based", "conditions": "0–5 μM peptide", "procedure": "(§1) Figure 3 Nitric oxide inhibition in LPS stimulated RAW264.7 by peptide antibiotics. RAW264.7 cells were stimulated with smooth type LPSs (A) E. coli O111:B4 LPS and (B) P. aeruginosa LPS and rough type LPS (C) E. coli K-12 LPS in the presence of different concentrations of peptides: CPA, murepavadin, MHM, PMB, and PMBN. NO production was measured by Griess assay. Shown are the mean ± SEM of three independent experiments. (D) Schematic diagram of the general structure of lipopolysaccharides. It consists of three main subunits: lipid A, the core region, and the O-antigen. Lipid A and the core-region form rough (R)-type LPS. Lipid A, the core-region, and the O-antigen together form smooth (S)-type LPS.\n(§2) RAW264.7 cells were seeded (5 × 10^4 cells/well) in a 96-well plate and left at 37 °C for overnight adherence. Then, cells were stimulated with […] types of LPS: 20 ng/mL LPS originating from E. coli O111:B4 (LPS-EB, InvivoGen), 50 ng/mL LPS from P. aeruginosa (PA-10 LPS, Sigma -Aldrich), and 5 ng/mL LPS from E. coli K-12 (LPS-EK, InvivoGen) in the presence of 0–5 μM peptides in DMEM for 24 h. After incubation, the nitrite content (corresponding to nitric oxide produced but quickly oxidized in watery solutions to nitrite) in the supernatant was measured using the Griess assay.[28]"}, "[2]": {"tested_on": "RAW264.7 macrophages stimulated with treated P. aeruginosa", "assay": "Silent killing: stimulation of macrophages with nonviable bacteria (TNF-α ELISA)", "format": "cell-based", "conditions": "bacteria 1 × 10^6 CFU/mL treated with 20 μM peptide 1 h at 37 °C, RAW264.7 2 h, three independent experiments", "procedure": "Figure 7 (A) Determination of macrophage activation in response to viable and nonviable bacteria. P. aeruginosa was treated with gentamicin, heat treatment, CATH-2 (control), CPA, murepavadin, MHM, PMB, or PMBN (20 μM of each) and subsequently added to RAW264.7 macrophages. Production of TNF-α was measured using ELISA after 2 h of treatment. (B) Viability of P. aeruginosa after treatment was checked by plating on TSA plates. Data is plotted as the mean ± SEM of three independent experiments. Significant differences were determined by ordinary one-way ANOVA (Tukey’s multiple comparison test).\nRAW264.7 cells were seeded (7.5 × 10^4 cells/well) as described above. P. aeruginosa (diluted to 1 × 10^6 CFU/mL in DMEM) was treated separately with heat (1 h at 90 °C), 1 mg/mL gentamicin (1 h at 37 °C), 20 μM CPA (1 h at 37 °C), 20 μM PMB (1 h at 37 °C), 20 μM murepavadin (1 h at 37 °C), 20 μM MHM (1 h at 37 °C), 20 μM CATH-2 (1 h at 37 °C), and DMEM only (untreated sample) (1 h at 4 °C). After treatment, the bacteria were added to the RAW264.7 cells for 2 h of incubation at 37 °C. After that, TNF-α production was determined in the supernatant by ELISA."}, "[3]": {"tested_on": "E. coli O111:B4 LPS stimulated RAW264.7 macrophages", "assay": "TNF-α release ELISA in LPS stimulated macrophages", "format": "cell-based", "conditions": "20 ng/mL E. coli O111:B4 LPS, 24 h", "procedure": "(§3) Figure 4 Peptides modulation of cytokine expression in RAW264.7 cells stimulated with LPS. RAW macrophages were stimulated with 20 ng/mL E. coli LPS in the presence of different concentrations of peptide antibiotics. (A) TNF-α and (B) IL-10 release was measured by ELISA in duplicates. Shown are the mean ± SEM of three independent experiments.\nas §2\n(§4) A sandwich ELISA was used to measure TNF-α and IL-10 concentrations in the supernatant of the same treatment (24 h) used for nitrite measurement, using ELISA Duoset kits (R&D systems, Minneapolis, MN) according to the manufacturer’s protocol."}, "[4]": {"tested_on": "E. coli O111:B4 LPS stimulated RAW264.7 macrophages", "assay": "IL-10 release ELISA in LPS stimulated macrophages", "format": "cell-based", "conditions": "20 ng/mL E. coli O111:B4 LPS, 24 h", "procedure": "as §3, §2, §4"}, "[5]": {"tested_on": "P. aeruginosa 10 LPS stimulated RAW264.7 macrophages", "assay": "Nitric oxide inhibition assay (Griess), P. aeruginosa 10 LPS", "format": "cell-based", "conditions": "0–5 μM peptide", "procedure": "as §1, §2"}, "[6]": {"tested_on": "Pseudomonas aeruginosa (clinical isolate)", "format": "cell-based", "conditions": "3 h", "procedure": "(§5) Figure 2 Determination of MBC values for (A) E. coli and (B) P. aeruginosa. Surviving bacterial colonies were detected after incubation with tested peptides for 3 h in MHB.\n(§6) Bacterial strains used in this study were clinical isolates of Escherichia coli and Pseudomonas aeruginosa provided by Utrecht University Medical Center, Department of Medical Microbiology, Utrecht, The Netherlands. Both strains were cultured in Mueller Hinton broth (MHB) (Millipore, Sigma-Aldrich).\n(§7) Logarithmic growth phase of an o/n bacterial culture was obtained by diluting it 1:100 in MHB and then incubating it for 3 h at 37 °C while shaking. After that, the OD620 of the bacterial suspension was measured and the bacterial solution was diluted to 2 × 10^6 colony forming units/mL (CFU/mL). Bacteria and peptides in MHB were mixed 1:1 (v/v) and incubated for 3 h at 37 °C in a polypropylene round-bottom 96 well-plate (Corning Costar, Glendale, AZ). Subsequently, 10-fold dilutions were made and plated out on Tryptone Soy Agar (TSA) plates and incubated for 24 h at 37 °C to count colonies."}, "[7]": {"tested_on": "Escherichia coli (clinical isolate)", "format": "cell-based", "procedure": "as §5, §6, §7"}, "E. coli O111:B4 LPS": {"tested_on": "E. coli O111:B4 LPS", "assay": "Isothermal titration calorimetry (ITC) of LPS binding", "conditions": "30 μM peptide, 200 μM LPS in 50% PBS, 37 °C, representative of two measurements", "procedure": "Figure 6 (A) Binding profile of LPS and the peptides using ITC. Binding signatures (ΔG, ΔH. and −TΔS) plotted for binding events of LPS with peptides. (B) Spectra of the interaction between LPS and peptides. Murepavadin, PMB, MHM, PMBN, and CPA (30 μM) were titrated against 200 μM E. coli O111:B4 LPS, and heat rates were recorded. Shown is a representative of two measurements.\nITC measurements were performed in a low volume NanoITC (TA Instruments-Waters LLC, New Castle, DE). Two hundred micromolar LPS (from E. coli O111:B4) was prepared in 50% PBS. Peptides of 30 μM concentration were prepared in identical buffer. Three hundred microliters of the peptide solution was added to the chamber (chamber volume is 169 μL, so the rest of the volume flows out and rests around the chamber), and 50 μL of LPS was added to the syringe. At 37 °C, 2 μL of LPS solution was injected into the chamber every 300 s, except the first injection, which consists of 0.96 μL. The experiments were performed at 37 °C while stirring at 300 rpm. The data was analyzed with the NanoAnalyze Software (TA Instruments, Asse, Belgium)."}, "[8]": {"tested_on": "E. coli K-12 LPS stimulated RAW264.7 macrophages", "assay": "Nitric oxide inhibition assay (Griess), E. coli K-12 LPS", "format": "cell-based", "conditions": "0–5 μM peptide", "procedure": "as §1, §2"}}, "note": "Where a SMILES comes first, the peptide text is derived from it. Bridges are numbered along the chain shown (N, C = ends). Roman numbers before positions name the chains, in order. [ ]: non-standard residue; d: D form. Tle = CC(C)(C)[C@H](N)C(=O)O; dDab = NCC[C@@H](N)C(=O)O; hSer = N[C@@H](CCO)C(=O)O; Dab = NCC[C@H](N)C(=O)O", "data": [{"smiles": "CC(C)C[C@@H]1NC(=O)[C@@H](Cc2ccccc2)NC(=O)[C@H](CCN)NC(=O)[C@@H](NC(=O)[C@H](CCN)NC(=O)[C@@H](NC(=O)[C@H](CCN)NC(=O)CC[C@@H]2NC(=O)[C@H](CCN)NC(=O)[C@H](Cc3ccc(O)cc3)NC(=O)[C@H]([C@@H](C)O)NC(=O)[C@H](C(C)C)NC(=O)[C@@H]3CCCN3C(=O)[C@@H](C)NC(=O)[C@H](CO)NC(=O)[C@H](C)NC(=O)[C@H](C(C)(C)C)NC(=O)[C@H](CCO)NC(=O)[C@H](Cc3c[nH]c4ccccc34)NC(=O)[C@H](CCO)NC(=O)[C@@H](CCN)NC2=O)[C@@H](C)O)CCNC(=O)[C@H]([C@@H](C)O)NC(=O)[C@H](CCN)NC(=O)[C@H](CCN)NC1=O", "note": "[CPA] (I: cyclo([dDab][hSer]W[hSer][Tle]AS[dA]PVTY[Dab]E) / II: [Dab]T[Dab][Dab][Dab][dF]L[Dab][Dab]T; amide I:14-II:N (inferred); lactam II:4-II:C (inferred); ring closure inferred)", "values": [{"measurement": "concentration that completely neutralized E. coli O111:B4 LPS (nitric oxide production)", "setting": "[1]; 20 ng/mL LPS, 24 h in DMEM, Griess assay", "value": 20, "unit": "nM"}, {"measurement": "inhibition of LPS-induced nitric oxide production (in words)", "setting": "[1]; smooth E. coli O111:B4 LPS 20 ng/mL, 24 h", "value": "dose-dependently active"}, {"measurement": "macrophage activation (TNF-α) by peptide-treated P. aeruginosa compared to viable untreated bacteria", "setting": "[2]", "value": "significantly reduced immune response"}, {"measurement": "inhibition of TNF-α release (in words)", "setting": "[3]", "value": "sharply decreased the TNF-α and IL-10 release by RAW264.7 macrophages at a concentration of 5 nM"}, {"measurement": "inhibition of IL-10 release (in words)", "setting": "[4]", "value": "sharply decreased the TNF-α and IL-10 release by RAW264.7 macrophages at a concentration of 5 nM"}, {"measurement": "concentration that almost completely neutralized P. aeruginosa 10 LPS (nitric oxide production)", "setting": "[5]; 50 ng/mL LPS, 24 h in DMEM, Griess assay", "value": 20, "unit": "nM"}, {"measurement": "inhibition of LPS-induced nitric oxide production (in words)", "setting": "[5]; smooth P. aeruginosa 10 LPS 50 ng/mL, 24 h", "value": "dose-dependently active"}, {"measurement": "MBC (complete killing) against P. aeruginosa", "setting": "[6]", "value": 2.5, "unit": "µM"}, {"measurement": "decrease in viable E. coli", "setting": "[7]; at 1.25 μM peptide, from starting density of 10^6 CFU/mL, 3 h in MHB", "value": 2, "unit": "log"}, {"measurement": "MBC (complete killing) against E. coli", "setting": "[7]; clinical isolate, 3 h", "value": 10, "unit": "µM"}, {"measurement": "Kd", "setting": "E. coli O111:B4 LPS", "value": 7.8, "unit": "µM"}, {"measurement": "concentration that neutralized E. coli K-12 LPS (nitric oxide production)", "setting": "[8]; 5 ng/mL rough LPS, 24 h in DMEM, Griess assay", "value": 5, "unit": "µM"}, {"measurement": "inhibition of LPS-induced nitric oxide production (in words)", "setting": "[8]; rough E. coli K-12 LPS 5 ng/mL, 24 h", "value": "dose-dependently active"}]}]}
